Reference: patent US20080058373A1, “Compositions and Methods for Treating or Preventing Glaucoma or Progression Thereof” (priority 2006, published 2008)

Columns and labels:
Type in all cases: in vivo
[1] = system: New Zealand White rabbits; test: Intraocular pressure (IOP) in rabbits, topical dosing four times daily; conditions: P.M. readings
Protocol: Seventy-five rabbits underwent two weeks of IOP training to condition them for IOP measurement. IOP was determined for both eyes of each animal using a Medtronic Solan, Model 30 classic pneumatonometer. Proparacaine hydrochloride 0.5% (1 drop) was delivered to each eye prior to IOP measurement. A two-point diurnal curve was established: IOP was recorded on Monday, Wednesday, and Friday of each week, at 8 a.m. and 12 p.m., with a ±1 hour range for each of these times. The time of the measurements was recorded.
(§1) On Days 1-31, animals received daily topical doses of the appropriate test article into the right eye. Animals were dosed four times per day, with doses administered 2 hours apart. Doses were administered using a calibrated 50-μL pipette. The eyelids were held close for 10 seconds immediately following dosing. The time of each dose administration was recorded.
Intraocular pressure (“IOP”) was determined for both eyes of each animal on Days 3, 5, 10, 12, 16, 18, 22, 24, 26, 30, and 32. IOP was evaluated with a Medtronic Solan, Model 30 classic pneumatonometer. Proparacaine hydrochloride 0.5% (1 drop) was delivered to each eye prior to IOP measurement. IOP was measured on Monday, Wednesday, and Friday of each week. A two-point diurnal curve was established: IOP was recorded at 8 a.m. and 12 p.m. on Day 3, and at 8 a.m. and 2 p.m. on later days, with a ±1 hour range for each of these times. The time of the measurements was recorded.
Descriptive statistics were prepared for IOP data of each treatment group (left and right eyes separately) at each measurement interval. The statistics included the number of observations (“N”), mean, standard deviation (“STD”), and standard error (“SEM”). Statistical analyses were conducted on IOP results using Statistical Analysis Systems (SAS Institute, Inc., Cary, N.C., V8.0). Parameters were evaluated using analysis of variance/GLM Procedure followed by Tukey's Standardized Range Test (Tukey, 1985) for post hoc comparisons of group means. The level of significance was set at a probability of p<0.05 for all statistical procedures. Group IOP means were compared at each interval, with left and right eyes compared separately.

[2] = system: New Zealand White rabbits; test: Mortality/morbidity in the rabbit IOP study; conditions: for Day of Death (day euthanized or found dead) / Recorded Notes (mortality): individual rabbits; for Mortality (animals found dead or euthanized prior to study completion/number of animals in group): topical right eye 4 × daily, Day 33; for Mortality: rabbits that died or were euthanized between Days 11 and 33: right eye four times daily, Days 1-31
Protocol: as §1
Animals determined to be moribund were euthanized with an intravenous injection of commercial euthanasia solution.

[3] = system: New Zealand White rabbits; test: Ophthalmic observations (slit lamp, McDonald Shadduck system) in the rabbit IOP study; set-up: key to Cornea Score: 1: Some loss of transparency. Only the epithelium and/or the anterior half of the stoma are involved. The underlying structures are clearly visible although some cloudiness may be readily apparent; key to Conjunctival congestion Score: A flushed, reddish color predominantly confined to the palpebral conjunctiva with some perilimbal injection but primarily confined to the lower and upper parts of the eye from the 4:00 to 7:00 and 11:00 to 1:00 positions; key to Ophthalmic Observation (Slit-Lamp): AN: Appeared normal
Protocol: Prior to placement on study, each animal underwent a pre-treatment ophthalmic examination (slit lamp and indirect ophthalmoscopy). Observations were scored according to the McDonald Shadduck system and recorded using a standardized data collection sheet.
Ophthalmic examinations (slit lamp) were performed prior to the first dosing on Days 5, 12, 22, 26, and 33. Ocular findings were scored according to the McDonald Shadduck system and recorded using a standardized data collection sheet.

[4] = 1 mg/g (0.05 mg/dose) 4 × daily, Group D
[5] = 10 mg/g (0.5 mg/dose) 4 × daily, Group B
[6] = 10 mg/g, treated right eye, Day 5

Cc1ccc2c(NCC(O)(CC(C)(C)c3cc(F)cc4c3OCC4)C(F)(F)F)cccc2n1 (centres unmarked)
Intraocular Pressure (MEAN) ([1]; treated right eyes, Day 16, 10 mg/g (Group B)): 21.6 mmHg | Intraocular Pressure (MEAN) ([1]; treated right eyes, Day 18, 1 mg/g (Group D)): 23.1 mmHg | Intraocular Pressure (MEAN) ([1]; treated right eyes, Day 18, 5 mg/g (Group C)): 21.6 mmHg | Intraocular Pressure (MEAN) ([1]; treated right eyes, Day 18, 10 mg/g (Group B)): 22.5 mmHg | Intraocular Pressure (MEAN) ([1]; treated right eyes, Day 22, 1 mg/g (Group D)): 22.5 mmHg | Intraocular Pressure (MEAN) ([1]; treated right eyes, Day 22, 5 mg/g (Group C)): 22.8 mmHg | Intraocular Pressure (MEAN) ([1]; treated right eyes, Day 22, 10 mg/g (Group B)): 23.1 mmHg | Intraocular Pressure (MEAN) ([1]; treated right eyes, Day 24, 1 mg/g (Group D)): 23.6 mmHg | Intraocular Pressure (MEAN) ([1]; treated right eyes, Day 24, 5 mg/g (Group C)): 23.4 mmHg | Intraocular Pressure (MEAN) ([1]; treated right eyes, Day 24, 10 mg/g (Group B)): 22.8 mmHg | Intraocular Pressure (MEAN) ([1]; treated right eyes, Day 26, 1 mg/g (Group D)): 22.6 mmHg | Intraocular Pressure (MEAN) ([1]; treated right eyes, Day 26, 5 mg/g (Group C)): 22.2 mmHg | Intraocular Pressure (MEAN) ([1]; treated right eyes, Day 26, 10 mg/g (Group B)): 20.9 mmHg | Intraocular Pressure (MEAN) ([1]; treated right eyes, Day 30, 10 mg/g (Group B)): 22.4 mmHg | Intraocular Pressure (MEAN) ([1]; untreated left eyes, Day 3, 1 mg/g (Group D)): 25.0 mmHg | Intraocular Pressure (MEAN) ([1]; untreated left eyes, Day 3, 5 mg/g (Group C)): 23.9 mmHg | Intraocular Pressure (MEAN) ([1]; untreated left eyes, Day 3, 10 mg/g (Group B)): 23.3 mmHg | Intraocular Pressure (MEAN) ([1]; untreated left eyes, Day 5, 1 mg/g (Group D)): 24.7 mmHg | Intraocular Pressure (MEAN) ([1]; untreated left eyes, Day 5, 5 mg/g (Group C)): 24.8 mmHg | Intraocular Pressure (MEAN) ([1]; untreated left eyes, Day 5, 10 mg/g (Group B)): 25.2 mmHg | Intraocular Pressure (MEAN) ([1]; untreated left eyes, Day 10, 1 mg/g (Group D)): 24.9 mmHg | Intraocular Pressure (MEAN) ([1]; untreated left eyes, Day 10, 5 mg/g (Group C)): 24.6 mmHg | Intraocular Pressure (MEAN) ([1]; untreated left eyes, Day 10, 10 mg/g (Group B)): 23.5 mmHg | Intraocular Pressure (MEAN) ([1]; untreated left eyes, Day 12, 1 mg/g (Group D)): 23.7 mmHg | Intraocular Pressure (MEAN) ([1]; untreated left eyes, Day 12, 5 mg/g (Group C)): 23.3 mmHg | Intraocular Pressure (MEAN) ([1]; untreated left eyes, Day 12, 10 mg/g (Group B)): 24.1 mmHg | Intraocular Pressure (MEAN) ([1]; untreated left eyes, Day 16, 1 mg/g (Group D)): 21.9 mmHg | Intraocular Pressure (MEAN) ([1]; untreated left eyes, Day 16, 5 mg/g (Group C)): 20.4 mmHg | Intraocular Pressure (MEAN) ([1]; untreated left eyes, Day 16, 10 mg/g (Group B)): 21.4 mmHg | Intraocular Pressure (MEAN) ([1]; untreated left eyes, Day 18, 1 mg/g (Group D)): 22.7 mmHg | Intraocular Pressure (MEAN) ([1]; untreated left eyes, Day 18, 5 mg/g (Group C)): 21.9 mmHg | Intraocular Pressure (MEAN) ([1]; untreated left eyes, Day 18, 10 mg/g (Group B)): 22.1 mmHg | Intraocular Pressure (MEAN) ([1]; untreated left eyes, Day 22, 1 mg/g (Group D)): 22.1 mmHg | Intraocular Pressure (MEAN) ([1]; untreated left eyes, Day 22, 5 mg/g (Group C)): 22.1 mmHg | Intraocular Pressure (MEAN) ([1]; untreated left eyes, Day 22, 10 mg/g (Group B)): 22.6 mmHg | Intraocular Pressure (MEAN) ([1]; untreated left eyes, Day 24, 1 mg/g (Group D)): 22.9 mmHg | Intraocular Pressure (MEAN) ([1]; untreated left eyes, Day 24, 5 mg/g (Group C)): 22.2 mmHg | Intraocular Pressure (MEAN) ([1]; untreated left eyes, Day 24, 10 mg/g (Group B)): 22.8 mmHg | Intraocular Pressure (MEAN) ([1]; untreated left eyes, Day 26, 1 mg/g (Group D)): 22.1 mmHg | Intraocular Pressure (MEAN) ([1]; untreated left eyes, Day 26, 5 mg/g (Group C)): 22.3 mmHg | Intraocular Pressure (MEAN) ([1]; untreated left eyes, Day 26, 10 mg/g (Group B)): 21.4 mmHg | Intraocular Pressure (MEAN) ([1]; untreated left eyes, Day 30, 1 mg/g (Group D)): 21.3 mmHg | Intraocular Pressure (MEAN) ([1]; untreated left eyes, Day 30, 5 mg/g (Group C)): 20.9 mmHg | Intraocular Pressure (MEAN) ([1]; untreated left eyes, Day 30, 10 mg/g (Group B)): 21.7 mmHg | Intraocular Pressure (MEAN) ([1]; untreated left eyes, Day 32, 1 mg/g (Group D)): 21.9 mmHg | Intraocular Pressure (MEAN) ([1]; untreated left eyes, Day 32, 5 mg/g (Group C)): 21.5 mmHg | Intraocular Pressure (MEAN) ([1]; untreated left eyes, Day 32, 10 mg/g (Group B)): 22.6 mmHg | Intraocular Pressure (MEAN) ([1]; untreated left eyes, Pre-Study, 1 mg/g (Group D)): 24.2 mmHg | Intraocular Pressure (MEAN) ([1]; untreated left eyes, Pre-Study, 5 mg/g (Group C)): 24.4 mmHg | Intraocular Pressure (MEAN) ([1]; untreated left eyes, Pre-Study, 10 mg/g (Group B)): 23.9 mmHg | Day of Death (day euthanized or found dead) [2, 4]: 29 | Recorded Notes (mortality) [2, 4]: Found dead. | Mortality (animals found dead or euthanized prior to study completion/number of animals in group) ([2]; 1 mg/g, 0.05 mg/dose): 1/10^(6) | Mortality: rabbits that died or were euthanized between Days 11 and 33 ([2]; 5 mg/g suspension ([…])): two of ten | Mortality (animals found dead or euthanized prior to study completion/number of animals in group) ([2]; 5 mg/g, […]): 2/10^(5) | Day of Death (day euthanized or found dead) [2, 5]: 11 | Recorded Notes (mortality) [2, 5]: Found dead. Noted on Day 9 to have significant diarrhea and | Mortality: rabbits that died or were euthanized between Days 11 and 33 ([2]; 10 mg/g suspension (0.5 mg/dose)): one of ten | Mortality (animals found dead or euthanized prior to study completion/number of animals in group) ([2]; 10 mg/g, 0.5 mg/dose): 1/10^(4) | Slit-lamp ocular findings (other findings) ([3]; 1 mg/g suspension, dosed right eye (Group D, No. 3043)): a subconjunctival hemorrhage | Ophthalmic Observation (Slit-Lamp) ([3]; 1 mg/g, treated right eye, Day 5, 12, 22, 26): AN | Ophthalmic Observation (Slit-Lamp) ([3]; 1 mg/g, treated right eye, Day 5, 12, 22, 26, 33): AN | Ophthalmic Observation (Slit-Lamp) ([3]; 1 mg/g, treated right eye, Day 5, 12, 26, 33): AN | Conjunctival congestion Score ([3]; 1 mg/g, treated right eye, Day 22): 1 | Conjunctival congestion Score ([3]; 5 mg/g, treated right eye, Day 5): 1 | Ophthalmic Observation (Slit-Lamp) ([3]; 5 mg/g, treated right eye, Day 5, 12): AN | Ophthalmic Observation (Slit-Lamp) ([3]; 5 mg/g, treated right eye, Day 5, 12, 22): AN | Ophthalmic Observation (Slit-Lamp) ([3]; 5 mg/g, treated right eye, Day 5, 12, 22, 26, 33): AN | Ophthalmic Observation (Slit-Lamp) ([3]; 5 mg/g, treated right eye, Day 5, 12, 26, 33): AN | Ophthalmic Observation (Slit-Lamp) ([3]; 5 mg/g, treated right eye, Day 5, 12, 33): AN | Ophthalmic Observation (Slit-Lamp) ([3]; 5 mg/g, treated right eye, Day 12, 22, 26, 33): AN | Conjunctival congestion Score ([3]; 5 mg/g, treated right eye, Day 22): 1 | Conjunctival congestion Score ([3]; 5 mg/g, treated right eye, Day 22, 26): 1 | Conjunctival congestion Score ([3]; 5 mg/g, treated right eye, Day 26): 1 | Slit-lamp ocular findings (other findings) ([3]; 10 mg/g suspension, dosed right eye (Group B, No. 3083)): a pinpoint corneal scar | Ophthalmic Observation (Slit-Lamp) [3, 6]: AN | Surface area of cornea involvement Score [3, 6]: 1 (1-25% area of stromal cloudiness.) | Conjunctival congestion Score ([3]; 10 mg/g, treated right eye, Day 5, 12): 1 | Ophthalmic Observation (Slit-Lamp) ([3]; 10 mg/g, treated right eye, Day 5, 12, 22, 26, 33): AN | Ophthalmic Observation (Slit-Lamp) ([3]; 10 mg/g, treated right eye, Day 5, 12, 22, 33): AN | Ophthalmic Observation (Slit-Lamp) ([3]; 10 mg/g, treated right eye, Day 5, 22, 26, 33): AN | Cornea Score ([3]; 10 mg/g, treated right eye, Day 5, pinpoint corneal scar): 1^(2) | Conjunctival congestion Score ([3]; 10 mg/g, treated right eye, Day 12): 1 | Ophthalmic Observation (Slit-Lamp) ([3]; 10 mg/g, treated right eye, Day 12, 22, 26, 33): AN | Ophthalmic Observation (Slit-Lamp) ([3]; 10 mg/g, treated right eye, Day 22, 26, 33): AN | Conjunctival congestion Score ([3]; 10 mg/g, treated right eye, Day 26): 1
